Laboratory results: patent US6465205B2, “In vitro cell culture device including cartilage and methods of using the same” (The Research Foundation of State University of New York, priority 1999, dated 2002)

Columns and labels:
[1] = test system: matrix metalloproteinases (MMP-2, MMP-9) in chondrocyte-conditioned medium; test: Gelatin zymography for MMP activity; type: biochemical, bovine or porcine
Experimental: Cell viability and number were determined by Trypan blue staining and counting using a hemocytometer. Chondrocytes were plated on collagen inserts (Costar Transwell, VWR, Pittsburgh, Pa.) at 20-40×10^6 cells/well in DMEM/F12 containing antibiotics, 10% FBS, and 50 μg/ml ascorbic acid (prepared fresh and added every other day). After the chondrocytes had formed a layer of extracellular matrix (approximately 2 weeks), the medium was switched to serum free (DMEM/F12 with antibiotics, 5 μg/ml insulin, 15 μg/ml bovine pituitary extract, 10 μg/ml epidermal growth factor, 5 μg/ml transferrin, 1 μM hydrocortisone, 10^−8 M retinol, and ascorbic acid). Cultures were fed from the bottom every 3-4 days. Medium was collected from chondrocyte cultures on days 3, 5, 7, 10, and 14 after switching from 10% FBS-containing medium to SFM. […]
CCM or SFM, obtained as described above, was mixed with 2× sample buffer (20 mM DTT, 4% SDS, 50 mM Tris, 20% glycine, 0.002% Bromophenol blue), loaded without prior heating, and electrophoresed under non-reducing conditions at 4° C. for approximately 4 hours under constant voltage. […] Gels were rinsed twice with distilled water then stained for 1 hour in Coomassie blue stain, followed by destaining in water/methanol/acetic acid (6:3.5:0.5) until clear areas of enzyme activity were detected against a blue background. […]

[2] = test system: respiratory epithelial cells; test: Proliferation of respiratory epithelial cells (cell number by hemocytometer count); type: cell-based, porcine
Experimental: Porcine tracheal tissue obtained at necropsy was cleaned of debris, rinsed thoroughly with PBS, and epithelium and submucosa removed and soaked overnight at 4° C. in MEM containing antibiotics/antimycotics. Dissociated respiratory epithelial cells were isolated using elastase digestion as described by Hicks et al. (“Rapid Isolation of Upper Respiratory Epithelial Cells,” Mol. Biol. Cell., 5(Suppl.): 118a (Abstract), (1995); Hicks et al., “Isolation and Characterization of Basal Cells from Human Upper Respiratory Epithelium,” Exp. Cell Res. 237:357-363 (1997), which are hereby incorporated by reference) and plated on top of type I collagen-coated 35 mm petri dishes at 0.2×10^6 cells/cm^2 in serum free medium. In selected experiments, cells were cultured in Biocoat type I collagen-coated 24 well plates. Medium was collected for gelatin zymography as described above.
The proliferative effects of CCM on REC were assessed by addition of CCM diluted 1:1 with SFM. REC cultures grown on type I collagen were fed 0.1 ml CCM or control SFM daily, and media were changed completely every 3 days. […] After incubation at 37° C. for 20 minutes, REC were again washed with PBS/10% FBS, then resuspended in PBS and an aliquot counted using Trypan blue dye exclusion to determine viability and cell number. […]

SMILES	MMP enzyme activity on zymogram developed in presence of chelator ([1]; developing buffer containing 20 mM EDTA (FIG. 5B))	Block of MMP (marker protein) activity in pooled CCM by gelatin zymography ([1]; 5 nM, medium of day 3 and day 7 (FIGS. 7A-B))	Effect on REC proliferation ([2]; 5 nM, REC cultured with or without CCM, cell number after 7 days)	Restoration of REC proliferation to control levels ([2]; concentrations of 10 and 50 W, in presence of CCM (FIG. 8))
O=C(O)CN(CCN(CC(=O)O)CC(=O)O)CC(=O)O [EDTA, ethylenediamine tetraacetic acid]	enzyme activity was abolished			
CNC(=O)[C@H](Cc1c[nH]c2ccccc12)NC(=O)[C@@H](CC(=O)NO)CC(C)C [GM6001]		did not block marker protein activity	nor was proliferation positively affected	proliferation was not restored to control levels
